From patent publication US8569264B2, “Antibacterial 4,5-substituted aminoglycoside analogs having multiple substituents” (ISIS Pharmaceuticals, Inc., priority 2005, dated 2013)
Read-outs that look alike come from different tables or passages of the source. Marks after values point to notes of the source that are not given here.

Experiments:
[1] = system: Staphylococcus aureus (Smith Strain ATCC 13709); assay: Staphylococcus aureus mouse protection assay; format: in vivo, mice; details: Staph Conc. 10^6, 10% Mucin, the 13th table
Description: Two of the novel aminoglycoside compounds of the invention were examined for their anitbacterial activity against staphylococcus aureus. Mice were fed with autoclaved commercial food pellets and sterile water ad libitum. Animals were inoculated intraperitoneally with 0.5 mL/mouse of the indicated concentration of S. aureus (ATCC 13709) containing 10% mucin. There were 10 mice in each treatment group and compounds were administered subcutaneously one and 3 hour after infection. Compounds 15a (R4═R5═CH3) and 15j (R4═H, R5═(CH2)2C6H5)) were used at 75 mg/kg, 37.5 mg/kg, 18.8 mg/kg, 9.4 mg/kg, 4.7 mg/kg, 2.3 mg/kg, 1.17 mg/kg and 0.5 mg/kg. Amakacin, paromomycin and neomycin were used as the positive controls at concentrations of 2 mg/kg, 1 mg/kg and 0.5 mg/kg.
Test compound was administered as an aqueous buffer solution (phosphate buffered saline (PBS), pH=7.4).

E. Coli = assay: MIC, E. Coli; format: cell-based
Description: (§1) The MIC assays are carried out in 150 μL volume in duplicate in 96-well clear flat-bottom plates. The bacterial suspension from an overnight culture growth in appropriate medium is added to a solution of test compound in 4% DMSO in water. Final bacterial inoculum is approximately 10^5-10^6 CFU/well. […] Both ampicillin and tetracycline are used as antibiotic-positive controls in each screening assay for S. pyogenes, E. coli imp-, E. coli, S. aureus, E. faecalis, K. pneumoniae and P. vulgaris. Ciprofloxacin is used as an antibiotic positive control in each screening assay for P. aeruginosa.

S. Aureus = assay: MIC, S. Aureus; format: cell-based
Description: as §1

[2] = system: E. coli S30 bacterial extract (pBestLuc firefly luciferase reporter); assay: Coupled bacterial transcription/translation assay; format: biochemical; details: read-out: Trans/Trans IC50
Description: The DNA template, pBestLuc™ (Promega), is a plasmid containing a reporter gene for firefly luciferase fused to a strong tac promoter and ribosome binding site. Messenger RNA from 1 μg pBestLuc is transcribed and translated in E. coli S30 bacterial extract in the presence or absence of test compound. Compounds are tested in a black 96 well microtiter plate with an assay volume of 35 μL. […] The transcription/translation reaction is incubated for 35 minutes at 37° C. followed by detection of functional luciferase with the addition of 30 μL LucLite™ (Packard). Light output is quantitated on a Packard TopCount.

[3] = molecular target: 18S ribosomal subunit RNA target; assay: Mass spectrometry based binding assay (FTICR), 18S
Description: (§2) In a typical experiment, 10 μL of an aqueous solution containing 100 mM ammonium acetate buffer, 2.5 or 5 μM of each RNA, and 33% isopropyl alcohol (to aid ion desolvation) was prepared with different concentrations of each ligand or ligand mixture Samples were introduced into the electrospray ionization source (negative ionization mode) at 1 μL/min and ions were stored for 1 sec in an RF-only hexapole following desolvation. The abundances were integrated from the respective ions for free RNA and the ligand-RNA complex. The primary (1:1 RNA:ligand) and secondary (1:2 complex, if observed). […] The peak ratios were measured at each concentration, then a plot of complex/free RNA versus concentration of ligand added was fitted to a second (or higher) order binding polynomial to determine the KD.

[4] = molecular target: 16S ribosomal subunit RNA target; assay: Mass spectrometry based binding assay (FTICR), 16S
Description: as §2, with “[…],” for “2.5 or 5 μM of each RNA,”

[5] = FTICR mass spectrometry, run at 100 nM RNA, Example 105
[6] = marked with an asterisk: run at 500 nM RNA, Example 105

NCC[C@H](O)C(=O)N[C@@H]1C[C@H](N)[C@@H](O[C@H]2O[C@H](CN)[C@@H](O)[C@H](O)[C@H]2O)[C@H](O)[C@H]1O[C@H]1O[C@H](CO)[C@@H](O)[C@H](N)[C@H]1O [Amikacin, reference compound]
# Dead mice/Total mice in group ([1]; 0.5 mg/kg subcutaneously): 8/10 | # Dead mice/Total mice in group ([1]; 1 mg/kg subcutaneously): 10/10 | # Dead mice/Total mice in group ([1]; 2 mg/kg subcutaneously): 8/10

NCC1OC(OC2C(CO)OC(OC3C(O)C(N)CC(N)C3OC3OC(CO)C(O)C(O)C3N)C2OCCNc2cccnc2)C(N)C(O)C1O (centres unmarked) [Compound 9a]
MIC E. Coli. (E. Coli; Example 105): 3-6^b uM | MIC S. Aureus (S. Aureus; Example 105): 0.6-1^ uM | IC50 ([2]; Example 105): 0.1 µM | Kd ([3]; FTICR mass spectrometry, Example 105): 3.5 µM | Kd [4, 5]: 0.6 µM

NCC1OC(OC2C(CO)OC(OC3C(O)C(N)CC(N)C3OC3OC(CO)C(O)C(O)C3N)C2OCCNCCc2ccc(-c3ccccc3)cc2)C(N)C(O)C1O (centres unmarked) [Compound 9aa]
MIC E. Coli. (E. Coli; Example 106): 20 to 40 µM | MIC S. Aureus (S. Aureus; Example 106): 5 to 10 µM | IC50 ([2]; Example 106): 1.5 µM | Kd ([3]; Example 106): 3.5 µM | Kd ([4]; Example 106): 0.9 µM

NCC1OC(OC2C(CO)OC(OC3C(O)C(N)CC(N)C3OC3OC(CO)C(O)C(O)C3N)C2OCCNCCC2CC3CCC2C3)C(N)C(O)C1O (centres unmarked) [Compound 9ab]
MIC E. Coli. (E. Coli; Example 107): >10 µM | MIC S. Aureus (S. Aureus; Example 107): 5 to 10 µM

NCC1OC(OC2C(CO)OC(OC3C(O)C(N)CC(N)C3OC3OC(CO)C(O)C(O)C3N)C2OCCNC2CCCc3ccccc32)C(N)C(O)C1O (centres unmarked) [Compound 9ac]
MIC E. Coli. (E. Coli; Example 107): >10 µM | MIC S. Aureus (S. Aureus; Example 107): 1.3 to 2.5 µM

NCC1OC(OC2C(CO)OC(OC3C(O)C(N)CC(N)C3OC3OC(CO)C(O)C(O)C3N)C2OCCNCCc2cc(C(F)(F)F)cc(C(F)(F)F)c2)C(N)C(O)C1O (centres unmarked) [Compound 9af]
MIC E. Coli. (E. Coli; Example 107): >10 µM | MIC S. Aureus (S. Aureus; Example 107): 2.5-5^ uM

NCC1OC(OC2C(CO)OC(OC3C(O)C(N)CC(N)C3OC3OC(CO)C(O)C(O)C3N)C2OCCNCCc2ccc(C(F)(F)F)cc2)C(N)C(O)C1O (centres unmarked) [Compound 9ah]
MIC E. Coli. (E. Coli; Example 107): 5 to 10 µM | MIC S. Aureus (S. Aureus; Example 107): 0.6 to 1.2 µM

NCCCNCCOC1C(OC2C(O)C(N)CC(N)C2OC2OC(CO)C(O)C(O)C2N)OC(CO)C1OC1OC(CN)C(O)C(O)C1N (centres unmarked) [Compound 9c]
MIC E. Coli. (E. Coli; Example 105): 25 to 50 µM | MIC S. Aureus (S. Aureus; Example 105): 3 to 6 µM | IC50 ([2]; Example 105): 0.3 µM | Kd [4, 6]: 0.4 µM

NCCNCCOC1C(OC2C(O)C(N)CC(N)C2OC2OC(CO)C(O)C(O)C2N)OC(CO)C1OC1OC(CN)C(O)C(O)C1N (centres unmarked) [Compound 9d]
MIC E. Coli. (E. Coli; Example 105): 6 to 12 µM | MIC S. Aureus (S. Aureus; Example 105): 2 to 3 µM | IC50 ([2]; Example 105): 0.3 µM | Kd [4, 5]: 0.7 µM

NCCOC1C(OC2C(O)C(N)CC(N)C2OC2OC(CO)C(O)C(O)C2N)OC(CO)C1OC1OC(CN)C(O)C(O)C1N (centres unmarked) [Compound 9f]
MIC E. Coli. (E. Coli; Example 105): 12 to 25 µM | MIC S. Aureus (S. Aureus; Example 105): 2 to 3 µM | IC50 ([2]; Example 105): 0.4 µM | Kd [4, 5]: 0.3 µM

CN(C)CCOC1C(OC2C(O)C(N)CC(N)C2OC2OC(CO)C(O)C(O)C2N)OC(CO)C1OC1OC(CN)C(O)C(O)C1N (centres unmarked) [Compound 9g]
MIC E. Coli. (E. Coli; Example 105): 12 to 52 µM | MIC S. Aureus (S. Aureus; Example 105): 6 to 12 µM | IC50 ([2]; Example 105): 0.2 µM | Kd [4, 6]: 0.9 µM

NCCN(CCN)CCOC1C(OC2C(O)C(N)CC(N)C2OC2OC(CO)C(O)C(O)C2N)OC(CO)C1OC1OC(CN)C(O)C(O)C1N (centres unmarked) [Compound 9h]
MIC E. Coli. (E. Coli; Example 105): >50 µM | MIC S. Aureus (S. Aureus; Example 105): 25 to 50 µM | IC50 ([2]; Example 105): 1 µM | Kd [4, 5]: 9.2 µM

NCC1OC(OC2C(CO)OC(OC3C(O)C(N)CC(N)C3OC3OC(CO)C(O)C(O)C3N)C2OCCNc2ccccc2)C(N)C(O)C1O (centres unmarked) [Compound 9l]
MIC E. Coli. (E. Coli; Example 105): 50 to 100 µM | MIC S. Aureus (S. Aureus; Example 105): 6 to 12 µM | IC50 ([2]; Example 105): 0.1 µM

COc1cc(CCNCCOC2C(OC3C(O)C(N)CC(N)C3OC3OC(CO)C(O)C(O)C3N)OC(CO)C2OC2OC(CN)C(O)C(O)C2N)cc(OC)c1 (centres unmarked) [Compound 9y]
MIC E. Coli. (E. Coli; Example 106): 10 to 20 µM | MIC S. Aureus (S. Aureus; Example 106): 5 to 10 µM | IC50 ([2]; Example 106): 0.2 µM
